Where “and” joins values, the source holds several entries; their conditions need not be identical. Equal entries are not always repeated. Where two headings read alike, the source gives them in different places.
Key:
[1] = molecular target: A/Chiba/1017/2009 (NA H275Y) neuraminidase (NA) (Influenza A virus, UniProt C7FH46, H275Y); format: biochemical, influenza A(H1N1)pdm09 virus
A/PR/8/34-PA/I38T [2] = format: cell-based, influenza A(H1N1) virus; conditions: read-out: IC50, plaque reduction
[3] = tested on: A/PR/8/34 (PA 38I wild-type); assay: microbe, parasite or virus in culture; format: cell-based, influenza A(H1N1) virus; conditions: Influenza A virus, PR/8, MDCK, 72 h, read-out: IC50, plaque reduction
[4] = tested on: A/Chiba/1017/2009 (NA H275Y); format: cell-based, influenza A(H1N1)pdm09 virus
[5] = tested on: A/Chiba/1016/2009 (NA 275H wild-type); assay: microbe, parasite or virus in culture; format: cell-based, influenza A(H1N1)pdm09 virus; conditions: Influenza A virus, MDCK, 72 h, read-out: IC50, plaque reduction
[6] = tested on: A/Fukui/45/2004 (NA E119V); format: cell-based, influenza A(H3N2) virus
[7] = tested on: A/Fukui/20/2004 (NA 119E wild-type); assay: microbe, parasite or virus in culture; format: cell-based, influenza A(H3N2) virus; conditions: Influenza A virus, MDCK, 72 h, read-out: IC50, plaque reduction
[8] = tested on: A/Kagoshima/2/2012 (NA R292K); format: cell-based, influenza A(H3N2) virus
[9] = tested on: A/Kagoshima/4/2012 (NA 292R wild-type); assay: microbe, parasite or virus in culture; format: cell-based, influenza A(H3N2) virus; conditions: Influenza A virus, MDCK, 72 h, read-out: IC50, plaque reduction
[10] = tested on: B/Perth/211/2001-197E (NA D197E); format: cell-based, influenza B virus
[11] = tested on: B/Perth/211/2001-197D (NA 197D wild-type); assay: microbe, parasite or virus in culture; format: cell-based; conditions: Influenza B virus, MDCK, 72 h, read-out: IC50, plaque reduction
A/PR/8/34-PA/I38T [12] = format: cell-based, influenza A(H1N1) virus
[13] = tested on: A/PR/8/34 (PA 38I wild-type); assay: microbe, parasite or virus in culture; format: cell-based, influenza A(H1N1) virus; conditions: Influenza A virus, PR/8, MDCK, 24 h, read-out: IC50, focus reduction
[14] = tested on: A/Chiba/1017/2009 (NA H275Y); format: cell-based, influenza A(H1N1)pdm09 virus; remark: listed apart in the source
[15] = tested on: A/Chiba/1016/2009 (NA 275H wild-type); assay: microbe, parasite or virus in culture; format: cell-based, influenza A(H1N1)pdm09 virus; conditions: Influenza A virus, MDCK, 24 h, read-out: IC50, focus reduction
[16] = tested on: A/Fukui/45/2004 (NA E119V); format: cell-based, influenza A(H3N2) virus; remark: listed apart in the source
[17] = tested on: A/Fukui/20/2004 (NA 119E wild-type); assay: microbe, parasite or virus in culture; format: cell-based, influenza A(H3N2) virus; conditions: Influenza A virus, MDCK, 24 h, read-out: IC50, focus reduction
[18] = tested on: A/Kagoshima/2/2012 (NA R292K); format: cell-based, influenza A(H3N2) virus; remark: listed apart in the source
[19] = tested on: A/Kagoshima/4/2012 (NA 292R wild-type); assay: microbe, parasite or virus in culture; format: cell-based, influenza A(H3N2) virus; conditions: Influenza A virus, MDCK, 24 h, read-out: IC50, focus reduction
[20] = tested on: B/Perth/211/2001-197E (NA D197E); format: cell-based, influenza B virus; remark: listed apart in the source
[21] = tested on: B/Perth/211/2001-197D (NA 197D wild-type); assay: microbe, parasite or virus in culture; format: cell-based; conditions: Influenza B virus, MDCK, 24 h, read-out: IC50, focus reduction
[22] = tested on: influenza A(H1N1) viruses with PA I38T; conditions: cited from earlier work
[23] = tested on: influenza A(H1N1) virus with PA I38T; conditions: cited from earlier work
[24] = tested on: influenza A(H1N1) virus with PA I38F; conditions: cited from earlier work
[25] = tested on: influenza A(H1N1) virus with PA E23K; conditions: cited from earlier work
[26] = tested on: influenza B virus with PA G548R; conditions: cited from earlier work
[27] = tested on: influenza A(H3N2) virus with PA I38T; conditions: cited from earlier work
[28] = tested on: influenza A(H3N2) virus with PA I38M; conditions: cited from earlier work
[29] = tested on: influenza A(H3N2) virus with PA A37T; conditions: cited from earlier work
[30] = tested on: influenza A(H3N2) virus with PA E199G; conditions: cited from earlier work
[31] = tested on: influenza A(H3N2) virus with PA N412D; conditions: cited from earlier work
[32] = tested on: influenza A(H3N2) virus with PA V517A; conditions: cited from earlier work
[33] = tested on: influenza A(H3N2) virus with PA P632S; conditions: cited from earlier work
[34] = molecular target: A/Fukui/45/2004 (NA E119V) neuraminidase (NA) (Influenza A virus, UniProt C6ELZ0, E119V); format: biochemical, influenza A(H3N2) virus
[35] = molecular target: A/Kagoshima/2/2012 (NA R292K) neuraminidase (NA) (Influenza A virus, UniProt J9TKI7, R292K); format: biochemical, influenza A(H3N2) virus
[36] = molecular target: B/Perth/211/2001-197E (NA D197E) neuraminidase (NA) (Influenza B virus, UniProt Q3S340, D197E); format: biochemical
[37] = molecular target: B/Perth/211/2001-197D (NA 197D wild-type) neuraminidase (NA) (Influenza B virus, UniProt Q3S340); format: biochemical
[38] = molecular target: A/PR/8/34 (PA 38I wild-type) neuraminidase (NA) (Influenza A virus, UniProt P03468); format: biochemical, influenza A(H1N1) virus
[39] = molecular target: A/Chiba/1016/2009 (NA 275H wild-type) neuraminidase (NA) (Influenza A virus, UniProt C7FH46); format: biochemical, influenza A(H1N1)pdm09 virus
[40] = molecular target: A/Fukui/20/2004 (NA 119E wild-type) neuraminidase (NA) (Influenza A virus, UniProt C6ELZ0); format: biochemical, influenza A(H3N2) virus
[41] = molecular target: A/Kagoshima/4/2012 (NA 292R wild-type) neuraminidase (NA) (Influenza A virus, UniProt J9TKI7); format: biochemical, influenza A(H3N2) virus
[42] = molecular target: A/PR/8/34-PA/I38T neuraminidase (NA) (Influenza A virus, UniProt P03468)
[43] = read-out: IC50, plaque reduction
[44] = read-out: IC50, focus reduction

## CC(=O)N[C@H]1[C@H]([C@H](O)[C@H](O)CO)OC(C(=O)O)=C[C@@H]1N=C(N)N [Zanamivir, zanamivir]
[1]
  NA inhibitor susceptibility (WHO criteria): 0.5 ± 0.1 NI

## O=C1c2c(O)c(=O)ccn2N([C@@H]2c3ccccc3SCc3c2ccc(F)c3F)[C@@H]2COCCN12 [Baloxavir, baloxavir acid]
A/PR/8/34-PA/I38T [2]
  IC50: 2.72 nM
[3]
  IC50: 0.05 ± 0.02 nM
[4]
  IC50 fold-change, plaque reduction: 0.21 ± 0.02 (0.8) fold
[4]; [43]
  IC50: 0.21 nM
[5]
  IC50: 0.27 ± 0.09 nM
[6]
  IC50 fold-change, plaque reduction: 0.15 ± 0.02 (0.4) fold
[6]; [43]
  IC50: 0.15 nM
[7]
  IC50: 0.42 ± 0.15 nM
[8]
  IC50 fold-change, plaque reduction: 0.22 ± 0.09 (1.5) fold
[8]; [43]
  IC50: 0.22 nM
[9]
  IC50: 0.15 ± 0.06 nM
[10]
  IC50 fold-change, plaque reduction: 5.68 ± 1.00 (2.6) fold
[10]; [43]
  IC50: 5.68 nM
[11]
  IC50: 2.2 ± 0.28 nM
A/PR/8/34-PA/I38T [12]
  IC50 fold-change, focus reduction: 44 fold
A/PR/8/34-PA/I38T [12]; [44]
  IC50: 7.4 nM
[13]
  IC50: 0.17 ± 0.03 nM
[14]
  IC50 fold-change, focus reduction: 0.53 ± 0.15 (1.0) fold
[14]; [44]
  IC50: 0.53 nM
[15]
  IC50: 0.5 ± 0.02 nM
[16]
  IC50 fold-change, focus reduction: 0.62 ± 0.04 (0.5) fold
[16]; [44]
  IC50: 0.62 nM
[17]
  IC50: 1.18 ± 0.49 nM
[18]
  IC50 fold-change, focus reduction: 0.59 ± 0.29 (2.0) fold
[18]; [44]
  IC50: 0.59 nM
[19]
  IC50: 0.29 ± 0.08 nM
[20]
  IC50 fold-change, focus reduction: 5.63 ± 2.34 (1.0) fold
[20]; [44]
  IC50: 5.63 nM
[21]
  IC50: 5.41 ± 1.99 nM
[22]
  fold-change in EC50: 41 fold and 40 fold
[23]
  fold higher EC50: 27.2 fold
[24]
  fold higher EC50: 10.6 fold
[25]
  fold higher EC50: 4.7 fold
[26]
  effect of substitution on baloxavir susceptibility: does not affect baloxavir susceptibility
[27]
  fold higher EC50: 56.6 fold
[28]
  fold higher EC50: 13.8 fold
[29]
  fold higher EC50: 8.1 fold
[30]
  fold higher EC50: 4.5 fold
[31]
  effect of substitution on baloxavir susceptibility: not affected
[32]
  effect of substitution on baloxavir susceptibility: not affected
[33]
  effect of substitution on baloxavir susceptibility: not affected

## CO[C@@H]([C@@H]1OC(C(=O)O)=C[C@H](NC(=N)N)[C@H]1NC(C)=O)[C@H](O)CO [Laninamivir]
[1]
  NA inhibitor susceptibility (WHO criteria): 0.3 ± 0.1 NI
[34]
  NA inhibitor susceptibility (WHO criteria): 1.2 ± 0.1 NI
[35]
  NA inhibitor susceptibility (WHO criteria): 3.9 ± 0.1 NI
[36]
  NA inhibitor susceptibility (WHO criteria): 1.9 ± 0.1 NI
[37]
  IC50: 1.3 ± 0.3 nM

## CCC(CC)[C@H](NC(C)=O)[C@@H]1[C@H](O)[C@@H](C(=O)O)C[C@H]1N=C(N)N [Peramivir, peramivir]
[38]
  IC50: 0.09 ± 0.01 nM
[1]
  IC50: 28 ± 3.9 nM
[39]
  IC50: 0.1 ± 0.1 nM
[34]
  IC50: 0.2 ± 0.1 nM
  NA inhibitor susceptibility (WHO criteria): 0.2 ± 0.1 NI
[40]
  IC50: 0.2 ± 0.1 nM
[35]
  IC50: 35.2 ± 2.6 nM
[41]
  IC50: 0.1 ± 0.1 nM
[36]
  IC50: 16.2 ± 6 nM
  NA inhibitor susceptibility (WHO criteria): 16.2 ± 6.0 RI (key: normal inhibition (NI); RI: a 5- to 50-fold increase in IC50 for influenza B viruses; HRI: influenza B viruses with >50-fold increase in IC50)
[37]; read-out: IC50
  IC50: 0.4 ± 0.1 nM
[42]
  IC50: 0.09 nM
  IC50 fold-change: 0.09 ± 0.01 (1.0) fold

From PMC6291754 (Frontiers in Microbiology, 2018)
